ChEMBL document CHEMBL1201862, “PubChem BioAssay data set” (2004)
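1) Cells in 96-well plates. 2) Compound, 48 h, 5 concentrations. 3) Linear interpolation between surrounding doses. 4) Unreached endpoint = highest concentration. GI50 is the concentration that inhibits growth by half.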 The source made the active and inactive calls. Rule as the data show it: active = GI50 up to about 1.1 µM and inactive = higher.

Key:
Experiment in all cases: DTP human tumour cell line panel, 48 h
A549 = system: A549
NCI/ADR-RES = system: NCI/ADR-RES
IGROV-1 = system: IGROV-1
KM12 = system: KM12
EKVX = system: EKVX
SR = system: SR
SN12C = system: SN12C
M14 = system: M14
NCI-H23 = system: NCI-H23
HOP-92 = system: HOP-92
COLO 205 = system: COLO 205
UACC-257 = system: UACC-257
Hs-578T = system: Hs-578T
NCI-H226 = system: NCI-H226
SF-295 = system: SF-295
T47D = system: T47D
HCT-116 = system: HCT-116
SF-539 = system: SF-539
K562 = system: K562
ACHN = system: ACHN
OVCAR-8 = system: OVCAR-8
SNB-75 = system: SNB-75
MCF7 = system: MCF7
BT-549 = system: BT-549
OVCAR-5 = system: OVCAR-5
CCRF-CEM = system: CCRF-CEM
UACC-62 = system: UACC-62
SNB-19 = system: SNB-19
NCI-H460 = system: NCI-H460
MDA-MB-435 = system: MDA-MB-435
MDA-N = system: MDA-N
HCC 2998 = system: HCC 2998
OVCAR-3 = system: OVCAR-3
SW-620 = system: SW-620
MDA-MB-231 = system: MDA-MB-231
SK-MEL-2 = system: SK-MEL-2
DU-145 = system: DU-145
786-0 = system: 786-0
SK-OV-3 = system: SK-OV-3
HOP-62 = system: HOP-62
OVCAR-4 = system: OVCAR-4
RPMI-8226 = system: RPMI-8226
RXF 393 = system: RXF 393
TK-10 = system: TK-10
PC-3 = system: PC-3
SF-268 = system: SF-268
NCI-H522 = system: NCI-H522
UO-31 = system: UO-31
HT-29 = system: HT-29
HCT-15 = system: HCT-15
U-251 = system: U-251
A498 = system: A498
MOLT-4 = system: MOLT-4
LOX IMVI = system: LOX IMVI
HL-60 = system: HL-60
CAKI-1 = system: CAKI-1
SK-MEL-5 = system: SK-MEL-5
SK-MEL-28 = system: SK-MEL-28
Malme-3M = system: Malme-3M

SMILES: C/C(=C\c1csc(C)n1)[C@@H]1C[C@@H]2O[C@@H]2CCC[C@H](C)[C@H](O)[C@@H](C)C(=O)C(C)(C)[C@@H](O)CC(=O)O1 [EPOTHILONE A]
- GI50 (A549): < 0.1 nM (active)
- GI50 (NCI/ADR-RES): 0.113 nM (active)
- GI50 (IGROV-1): < 0.1 nM (active)
- GI50 (KM12): < 0.1 nM (active)
- GI50 (EKVX): < 0.1 nM (active)
- GI50 (SR): < 0.1 nM (active)
- GI50 (SN12C): < 0.1 nM (active)
- GI50 (M14): < 0.1 nM (active)
- GI50 (NCI-H23): < 0.1 nM (active)
- GI50 (HOP-92): 3.9 nM (active)
- GI50 (COLO 205): < 0.1 nM (active)
- GI50 (UACC-257): < 0.1 nM (active)
- GI50 (Hs-578T): < 0.1 nM (active)
- GI50 (NCI-H226): < 0.1 nM (active)
- GI50 (SF-295): < 0.1 nM (active)
- GI50 (T47D): < 0.1 nM (active)
- GI50 (HCT-116): < 0.1 nM (active)
- GI50 (SF-539): < 0.1 nM (active)
- GI50 (K562): < 0.1 nM (active)
- GI50 (ACHN): < 0.1 nM (active)
- GI50 (OVCAR-8): < 0.1 nM (active)
- GI50 (SNB-75): < 0.1 nM (active)
- GI50 (MCF7): < 0.1 nM (active)
- GI50 (BT-549): < 0.1 nM (active)
- GI50 (OVCAR-5): < 0.1 nM (active)
- GI50 (CCRF-CEM): < 0.1 nM (active)
- GI50 (UACC-62): < 0.1 nM (active)
- GI50 (SNB-19): < 0.1 nM (active)
- GI50 (NCI-H460): < 0.1 nM (active)
- GI50 (MDA-MB-435): < 0.1 nM (active)
- GI50 (MDA-N): < 0.1 nM (active)
- GI50 (HCC 2998): < 0.1 nM (active)
- GI50 (OVCAR-3): < 0.1 nM (active)
- GI50 (SW-620): < 0.1 nM (active)
- GI50 (MDA-MB-231): < 0.1 nM (active)
- GI50 (SK-MEL-2): < 0.1 nM (active)
- GI50 (DU-145): < 0.1 nM (active)
- GI50 (786-0): < 0.1 nM (active)
- GI50 (SK-OV-3): < 0.1 nM (active)
- GI50 (HOP-62): < 0.1 nM (active)
- GI50 (OVCAR-4): 124 nM (active)
- GI50 (RPMI-8226): < 0.1 nM (active)
- GI50 (RXF 393): < 0.1 nM (active)
- GI50 (TK-10): 16.7 nM (active)
- GI50 (PC-3): < 0.1 nM (active)
- GI50 (SF-268): < 0.1 nM (active)
- GI50 (NCI-H522): < 0.1 nM (active)
- GI50 (UO-31): < 0.1 nM (active)
- GI50 (HT-29): < 0.1 nM (active)
- GI50 (HCT-15): < 0.1 nM
- GI50 (U-251): < 0.1 nM (active)
- GI50 (A498): < 0.1 nM (active)
- GI50 (MOLT-4): < 0.1 nM (active)
- GI50 (LOX IMVI): < 0.1 nM (active)
- GI50 (HL-60): < 0.1 nM (active)
- GI50 (CAKI-1): < 0.1 nM (active)
- GI50 (SK-MEL-5): < 0.1 nM (active)

SMILES: O=C(C(=O)n1ccc2ccccc21)n1ccc2ccccc21
- GI50 (A549): 83200 nM (inactive)
- GI50 (NCI/ADR-RES): > 100000 nM (inactive)
- GI50 (IGROV-1): 2120 nM (inactive)
- GI50 (EKVX): > 100000 nM (inactive)
- GI50 (SR): 40100 nM (inactive)
- GI50 (SN12C): > 100000 nM (inactive)
- GI50 (NCI-H23): 75300 nM (inactive)
- GI50 (HOP-92): 34000 nM (inactive)
- GI50 (COLO 205): > 100000 nM (inactive)
- GI50 (UACC-257): > 100000 nM (inactive)
- GI50 (Hs-578T): 27500 nM (inactive)
- GI50 (NCI-H226): > 100000 nM (inactive)
- GI50 (SF-295): 37600 nM (inactive)
- GI50 (T47D): > 100000 nM (inactive)
- GI50 (HCT-116): > 100000 nM (inactive)
- GI50 (SF-539): 37000 nM (inactive)
- GI50 (K562): 71400 nM (inactive)
- GI50 (ACHN): > 100000 nM (inactive)
- GI50 (OVCAR-8): 59700 nM (inactive)
- GI50 (SNB-75): 10700 nM (inactive)
- GI50 (MCF7): > 100000 nM (inactive)
- GI50 (BT-549): > 100000 nM (inactive)
- GI50 (OVCAR-5): > 100000 nM (inactive)
- GI50 (CCRF-CEM): 38700 nM (inactive)
- GI50 (UACC-62): 57900 nM (inactive)
- GI50 (SNB-19): 54600 nM (inactive)
- GI50 (NCI-H460): 36600 nM (inactive)
- GI50 (MDA-MB-435): > 100000 nM (inactive)
- GI50 (MDA-N): > 100000 nM (inactive)
- GI50 (HCC 2998): > 100000 nM (inactive)
- GI50 (OVCAR-3): > 100000 nM (inactive)
- GI50 (SW-620): > 100000 nM (inactive)
- GI50 (MDA-MB-231): > 100000 nM (inactive)
- GI50 (SK-MEL-2): > 100000 nM (inactive)
- GI50 (DU-145): > 100000 nM (inactive)
- GI50 (786-0): 91600 nM (inactive)
- GI50 (SK-MEL-28): > 100000 nM (inactive)
- GI50 (SK-OV-3): 48300 nM (inactive)
- GI50 (HOP-62): 99300 nM (inactive)
- GI50 (Malme-3M): > 100000 nM (inactive)
- GI50 (OVCAR-4): 29000 nM (inactive)
- GI50 (RPMI-8226): > 100000 nM (inactive)
- GI50 (RXF 393): 88700 nM (inactive)
- GI50 (TK-10): > 100000 nM (inactive)
- GI50 (PC-3): > 100000 nM (inactive)
- GI50 (SF-268): 84700 nM (inactive)
- GI50 (NCI-H522): 49200 nM (inactive)
- GI50 (UO-31): > 100000 nM (inactive)
- GI50 (HT-29): > 100000 nM (inactive)
- GI50 (HCT-15): > 100000 nM
- GI50 (U-251): 63400 nM (inactive)
- GI50 (A498): > 100000 nM (inactive)
- GI50 (MOLT-4): > 100000 nM (inactive)
- GI50 (LOX IMVI): > 100000 nM (inactive)
- GI50 (CAKI-1): > 100000 nM (inactive)
- GI50 (SK-MEL-5): > 100000 nM (inactive)
